Eight compounds from patent US4742069A, “Sulfonamide containing dihydropyridine derivatives, intermediates and medicinal use” (Hoffmann-La Roche Inc., priority 1984, dated 1988) can be followed below.

In assay [1] the target is ^3 H-nifedipine (or ^3 H-nitrendipine) binding, rabbit or guinea pig heart membranes. In words: 3H-Nifedipine binding determinations. Conditions: for A: % max. inhib. (maximum inhibition of specific binding): reference compound nifedipine established as 100%. As for the experimental part:
A. ^3 H-Nifedipine binding determinations:
The determination is carried out on homogenates or on partially-cleaned membranes of rabbit or guinea pig heart. The reaction mixture (0.3 ml) consists of 0.2-0.8 mg of membrane protein, 1 nM of ^3 H-nifedipine (or 0.25 nM of ^3 H-nitrendipine) and various concentrations of the test substances. The incubation lasts 30 minutes at 25° C. or 37° C. and is stopped by dilution with the incubation buffer; a filtration is subsequently carried out. The filter-bound radioactivity is measured with a scintillation counter. Specific binding (i.e. receptor-bound) is defined as the difference between total and unspecific-bound radioactivity. The unspecific binding is determined in the presence of an excess of non-radioactive nifedipine (1 μM).
The activity (potency) of a compound in this test is defined by the IC50 and % maximum inhibition values (% max. inhibition). The IC50 is the substance concentration (in mol/l) which produces a half-maximum inhibition of the specific ^3 H-nifedipine (or ^3 H-nitrendipine) binding. In the table compound A has an IC50 in mol/l, of 3.0.10^-8 which means 3.0×10^-8. The maximum inhibition of the specific binding is given by the % maximum inhibition value; this value is established as 100% for the reference compound nifedipine. Both parameters are extrapolated from a concentration-binding curve.

For assay [2], the system named is KCl contracture of coronary artery strips of dogs (tension-dependent calcium channel). The assay is described as follows: Coronary artery strips of dogs, relaxation of KCl contracture. The class given is cell-based, dog. Conditions: Canis lupus familiaris; KCl 84.7 mM, 37° C.; read-out: B: IC50 (half-maximum relaxation of KCl contracture). As for the experimental part: B. Coronary artery strips of dogs:
In this experiment spiral strips (2-2.5 mm wide and 10 mm long) of coronary arteries of dogs are cut and hung up in an organ chamber under an initial tension of 1.5 g. These strips are pre-incubated for a duration of about 1 to 2 hours in Krebs-Henseleit buffer solution which is gassed with Oxycarbon (a mixture of 95% oxygen and 5% carbon dioxide) at 37° C. The relaxing activity of one of these substances is subsequently tested on a KCl (84.7 mM) contracture by the addition of increasing concentrations of the test substance to the organ chamber. The calcium channel-blocking activity of the test substances can therefore be established, as the KCl contracture occurs exclusively by means of calcium flow through the tension-dependent calcium channel.
The activity of a test substance in this test is given by the IC50 value. This value is defined as the substance concentration (in mol/l) which produces a half-maximum relaxation of a KCl contracture. This value is also extrapolated from the resulting concentration-activity curve.

For a further assay, the system named is narcotized dog. In words: Hemodynamic parameters in the narcotized dog. The class given is in vivo. The text has this: C. Hemodynamic parameters in the narcotized dog:
The 4 most important measurement parameters (with respective measurement units) of the hemodynamic experiment are: (1) CBF: Coronary Blood Flow (in ml/min)--the velocity of blood flow through the coronary arteries; (2) HR: heart rate (in beats/min)--the heart frequency; (3) BP: blood pressure (in mm Hg); and (4) dp/dt: rate of increase in left ventricular pressure (in mm Hg/sec) as a measurement of the contractility force of the heart. The values are given as the % maximum variation from the initial value (Δ%) and the duration in minutes of this variation (t) per dosage administered.
There is thus obtained not only an overall picture of the activity of the substance, but also an estimation as to the potential selectivity for a specific part of the circulatory system in the entire organism. After the administration of an anesthetic, the dog is intubated and respired artificially. Blood pH, pCO2, pO2 and hemoglobin are measured hourly with a blood-gas analyzer. The blood pressure (systolic and diastolic) is measured with a probe in the aorta abdominalis. The heart frequency is recorded by means of a tachometer, which is disengaged from the pressure pulse. For the other measurements the heart must first be opened in order that a probe can be inserted in the left ventricle (heart chamber) for the pressure measurements (dp/dt). The coronary blood flow is measured with a flowing probe in the left coronary artery (descendens).
This allows the prediction that they are useful as agents in the control or prevention of angina pectoris, ischemia, high blood pressure and migraine.

For orientation: IC50 means the concentration needed to halve the response being measured. On to `CCNS(=O)(=O)CC(=O)C1=C(C)NC(C)=C(C(=O)OC(C)C)C1c1cccc([N+](=O)[O-])c1` (centres unmarked) [A, 5-[(Ethylsulfamoyl)acetyl]-1,4-dihydro-2,6-dimethyl-4-(3-nitrophenyl)nicotinic acid isopropyl ester], for which the IC50 in assay [1] (read-out: IC50 (half-maximum inhibition of specific 3H-nifedipine binding), as repeated in the text) turned out to be 30 nM. Further, the “A: % max. inhib. (maximum inhibition of specific binding)” value in assay [1] was 100%. The IC50 in assay [2] amounted to 6.8 nM. Further, in the assay with narcotized dog (0.03 mg/kg p.o.), the “BP blood pressure, duration of variation (t)” value (from here on “BP blood pressure, duration”) was > 60 min; the “BP blood pressure, maximum variation from initial value (Δ%)” value (from here on “BP blood pressure … (Δ%)”) was -13%; the “CBF coronary blood flow, duration of variation (t)” value (“CBF coronary blood flow, duration” for short) turned out to be 90 min; the “CBF coronary blood flow, maximum variation from initial value (Δ%)” value (“CBF coronary blood flow … (Δ%)” below) is reported as 98%. Besides, in the assay with narcotized dog (0.03 mg/kg p.o.), the “HR heart rate, duration of variation (t)” value came to 60 min; the “HR heart rate, maximum variation from initial value (Δ%)” value (from here on “HR heart rate, maximum variation … (Δ%)”) is on record as -11%; the “dp/dt rate of increase in left ventricular pressure, maximum variation from initial value (Δ%)” value (from here on “dp/dt rate of increase … (Δ%)”) amounted to 37%; the “dp/dt, duration of variation (t)” value is 90 min.

As to `CNS(=O)(=O)CC(=O)C1=C(C)NC(C)=C(C(=O)OC(C)C)C1c1cccc([N+](=O)[O-])c1` (centres unmarked) [B, 1,4-dihydro-2,6-dimethyl-5-[(methylsulfamoyl)acetyl]-4-(3-nitrophenyl)nicotinic acid isopropyl ester], in assay [1], the “A: % max. inhib. (maximum inhibition of specific binding)” value worked out at 94%. In assay [2], the concentration for half-maximal inhibition (IC50) came to 16 nM. In addition, in the assay on narcotized dog (0.03 mg/kg p.o.), the “BP blood pressure, duration” value is > 90 min; the “BP blood pressure … (Δ%)” value was -8%; the “CBF coronary blood flow, duration” value is > 90 min; the “CBF coronary blood flow … (Δ%)” value is 120%. Also, in the assay on narcotized dog (0.03 mg/kg p.o.), the “HR heart rate, maximum variation … (Δ%)” value was determined as 0%; the “dp/dt rate of increase … (Δ%)” value worked out at 10%; the “dp/dt, duration of variation (t)” value is > 90 min.

For the compound `CNS(=O)(=O)CC(=O)C1=C(C)NC(C)=C(C(=O)OCC(F)(F)F)C1c1cccc([N+](=O)[O-])c1` (centres unmarked) [C, 1,4-dihydro-2,6-dimethyl-5-[(methylsulfamoyl)acetyl]-4-(3-nitrophenyl)nicotinic acid 2,2,2-trifluoroethyl ester], the “A: % max. inhib. (maximum inhibition of specific binding)” value in assay [1] amounted to 100%. For the same compound, the IC50 in assay [2] was 9.5 nM. Further, in the assay with narcotized dog (0.1 mg/kg p.o.), the “BP blood pressure, duration” value is > 180 min; the “BP blood pressure … (Δ%)” value was -16%; the “CBF coronary blood flow, duration” value came to 180 min; the “CBF coronary blood flow … (Δ%)” value stood at 88%. In addition, in the assay with narcotized dog (0.1 mg/kg p.o.), the “HR heart rate, duration of variation (t)” value stood at 120 min; the “HR heart rate, maximum variation … (Δ%)” value was “+2%”; the “dp/dt rate of increase … (Δ%)” value is 33%; the “dp/dt, duration of variation (t)” value is 180 min.

In the case of `CC1=C(C(=O)CS(=O)(=O)NC(C)C)C(c2cc([N+](=O)[O-])ccc2Cl)C(C(=O)OC(C)C)=C(C)N1` (centres unmarked) [D, 4-(2-chloro-5-nitrophenyl)-1,4-dihydro-5-[(isopropylsulfamoyl)acetyl]-2,6-dimethylnicotinic acid isopropyl ester], the “A: % max. inhib. (maximum inhibition of specific binding)” value in assay [1] is recorded as 100%. The half-maximal inhibitory concentration (IC50) in assay [2] stood at 0.82 nM. Further, in the assay on narcotized dog (0.03 mg/kg p.o.), the “BP blood pressure, duration” value was > 60 min; the “BP blood pressure … (Δ%)” value is on record as -9%; the “CBF coronary blood flow, duration” value is > 120 min; the “CBF coronary blood flow … (Δ%)” value worked out at 68%. In addition, in the assay on narcotized dog (0.03 mg/kg p.o.), the “HR heart rate, duration of variation (t)” value stood at 60 min; the “HR heart rate, maximum variation … (Δ%)” value is -5%; the “dp/dt rate of increase … (Δ%)” value came out at 75%; the “dp/dt, duration of variation (t)” value amounted to 90 min.

`CC1=C(C(=O)CS(=O)(=O)NC(C)C)C(c2cc(Cl)ccc2Cl)C(C(=O)OC(C)C)=C(C)N1` (centres unmarked) [E, 4-(2,5-dichlorophenyl)-1,4-dihydro-5-[(isopropylsulfamoyl)acetyl]-2,6-dimethylnicotinic acid isopropyl ester]: the “A: % max. inhib. (maximum inhibition of specific binding)” value in assay [1] came out at 100%. In assay [2], the IC50 came to 6.6 nM. For the same compound, in the assay with narcotized dog (0.03 mg/kg p.o.), the “BP blood pressure, duration” value was > 120 min; the “BP blood pressure … (Δ%)” value is -16%; the “CBF coronary blood flow, duration” value was determined as 70 min; the “CBF coronary blood flow … (Δ%)” value is reported as 104%. In addition, in the assay with narcotized dog (0.03 mg/kg p.o.), the “HR heart rate, duration of variation (t)” value was 120 min; the “HR heart rate, maximum variation … (Δ%)” value is -14%; the “dp/dt rate of increase … (Δ%)” value came to 65%; the “dp/dt, duration of variation (t)” value turned out to be 90 min.

As for `CCCOCCOC(=O)C1=C(C)NC(C)=C(C(=O)CS(=O)(=O)NC(C)C)C1c1cccc([N+](=O)[O-])c1` (centres unmarked) [F, 1,4-dihydro-5-[(isopropylsulfamoyl)acetyl]-2,6-dimethyl-4-(3-nitrophenyl)nicotinic acid 2-propoxyethyl ester], in assay [1], the “A: % max. inhib. (maximum inhibition of specific binding)” value was determined as 99%. The IC50 in assay [2] was found to be 0.6 nM. For the same compound, in the assay on narcotized dog (0.03 mg/kg p.o.), the “BP blood pressure, duration” value is > 60 min; the “BP blood pressure … (Δ%)” value is -11%; the “CBF coronary blood flow, duration” value stood at 120 min; the “CBF coronary blood flow … (Δ%)” value is 56%. In addition, in the assay on narcotized dog (0.03 mg/kg p.o.), the “HR heart rate, duration of variation (t)” value amounted to 16 min; the “HR heart rate, maximum variation … (Δ%)” value was -5%; the “dp/dt rate of increase … (Δ%)” value worked out at 34%; the “dp/dt, duration of variation (t)” value is 60 min.

For the compound `CC1=C(C(=O)CS(=O)(=O)NC(C)C)[C@H](c2cccc([N+](=O)[O-])c2)C(C(=O)O[C@@H](C)c2ccccc2)=C(C)N1` [G, (S)-1,4-dihydro-5-[(isopropylsulfamoyl)acetyl]-2,6-dimethyl-4-(3-nitrophenyl)nicotinic acid (S)-1-phenylethyl ester], in assay [1], the “A: % max. inhib. (maximum inhibition of specific binding)” value came out at 100%. For the same compound, the half-inhibitory concentration (IC50) in assay [2] amounted to 7.4 nM. Moreover, in the assay on narcotized dog (0.03 mg/kg p.o.), the “BP blood pressure, duration” value was > 120 min; the “BP blood pressure … (Δ%)” value is -36%; the “CBF coronary blood flow, duration” value was > 120 min; the “CBF coronary blood flow … (Δ%)” value is 57%. Moreover, in the assay on narcotized dog (0.03 mg/kg p.o.), the “HR heart rate, duration of variation (t)” value was > 120 min; the “HR heart rate, maximum variation … (Δ%)” value is recorded as -13%; the “dp/dt rate of increase … (Δ%)” value is 29%; the “dp/dt, duration of variation (t)” value was > 120 min.

As to `COC(=O)C1=C(C)NC(C)=C(C(=O)OC)C1c1ccccc1[N+](=O)[O-]` [nifedipine, reference compound], the “A: % max. inhib. (maximum inhibition of specific binding)” value in assay [1] came out at 100%.
